In patent US8608842B2, “Infrared absorbing composition, infrared absorbing ink, recorded article, image recording method, and image detecting method” (FUJIFILM Corporation, priority 2010, dated 2013):
Where two headings read alike, the source gives them in different places.

Legend:
Assay type in all cases: physicochemical
[1] = Solubility of IR coloring material in toluene at 25° C.
Protocol: Specifics are as follows.
First, a tetrahydrofuran (THF) solution prepared by adding the IR coloring material to TI-IF is measured by a spectrophotometer and a calibration curve is constructed. Next, a liquid is prepared by adding the IR coloring material to toluene to the level that there is a part of the coloring material left undissolved. The resulting liquid is subjected to ultrasonication for 10 minutes while being maintained at 25° C., and allowed to stand overnight at 25° C. The THF solution obtained after the standing is filtered using a 0.2 μm filter. The filtrate is diluted so that it falls within the linear range of the calibration curve, the absorbance is measured, and quantification is made using the calibration curve.
The solubility shown in Table 1 was measured according to the method described below. Specifics are as follows.
First, the THF solution prepared by adding the IR coloring material to tetrahydrofuran (THF) was measured by a spectrophotometer, and the calibration curve was established. Next, a liquid was prepared by adding the IR coloring material to toluene to the level that there is a part of coloring material left undissolved. The resulting liquid was subjected to ultrasonication for 10 minutes while being kept at 25° C., and allowed to stand overnight at 25° C. The THF solution obtained after the standing was filtered using a 0.2 μm filter. The filtrate was diluted so that it falls within the linear range of the calibration curve, and the absorbance was measured. Based on the measured value, the solubility was quantified using the calibration curve.

[2] = Ultraviolet curable ink of Example 4: reflected light of mark for copy protection, before and after xenon irradiation; conditions: xenon light of 70,000 lux, 72 hours; variation compared to the value before irradiation
Protocol: By mixing the components of the composition shown below, an ultraviolet curable ink having an infrared absorbing property was prepared.
By using the ultraviolet curable ink thus obtained, a mark for copy protection was printed on the same base paper as that used in Example 1 by Gravure printing. On top of the printed mark for copy protection, each of the three kinds of a process ink (FDOL Yellow, FDOL Magenta, and FDOL Cyan, trade names, manufactured by TOYO INK MFG. CO., LTD.) was applied as a layer by Gravure printing, or a mixture ink in which the three kinds of a process ink are mixed was applied as a layer by Gravure printing to hide the mark for copy protection, thus obtaining a printed article.
The mark for copy protection that is hidden by the process ink was irradiated with infrared light using a linear sensor (trade name: TCD1500C, manufactured by Toshiba) in which the infrared cut-off filter of linear sensor was replaced with an infrared transmitting filter (trade name: IR83, manufactured by Hoya) as a detection device, and the reflected light was detected simultaneously.
The reflection light intensity in the area of the mark for copy protection at the time of detecting the mark was divided by the reflection light intensity of the area outside the mark for copy protection. The resulting value of the comparative infrared absorbing agent A was set to 1, and a ratio of the resulting value with respect to the resulting value of the comparative infrared absorbing agent A was calculated for each compound.
In addition, the obtained printed article was irradiated continuously with xenon light of 70,000 lux for 72 hours by using a Xenon lamp. After the irradiation, similar to above, the reflection light intensity of the area of the mark for copy protection was divided by the reflection light intensity of the area outside the mark for copy protection, and the variation ratio [%] compared to the value before the irradiation was calculated to use it as an index for evaluation of light resistance.

[3] = Bar code pattern reading (PCS) of printed article before and after xenon light irradiation (light resistance); conditions: xenon light of 70,000 lux, 200 hours
Protocol: By mixing the components of the composition shown below, the infrared absorbing printing ink (1) was prepared.
By using each of the infrared absorbing printing ink obtained above, a bar code pattern was formed on a regular paper (trade name: MP-120, manufactured by PLUS Corporation), i.e., a base paper, by Gravure printing.
Subsequently, on the formed bar code pattern, another bar code pattern was additionally formed by using the infrared absorbing ink (2) having the composition shown below.
Next, on top of the bar code patterns formed by disposing two layers, three kinds of process inks having infrared transmittance (FDOL Yellow, FDOL Magenta, and FDOL Cyan, manufactured by TOYO INK MFG. CO., LTD. (trade names, manufactured by TOYO INK MFG. CO., LTD.) were further applied by Gravure printing to form a colored layer made of three visible colors (cyan, magenta, and yellow). As a result, a printed article having a bar code pattern disposed inside the matter was produced.
Two kinds of semiconductor laser beam having wavelengths of 830 nm and 905 nm respectively were irradiated onto the thus obtained printed article, and the detection was made by using a filter which cuts off the emission light having wavelength of 950 nm or less. As a result, it was possible to detect the pattern formed by the infrared absorbing ink.
Subsequently, xenon light of 70,000 lux was irradiated continuously for 200 hours onto the printed article by using a xenon lamp. After that, the reading state of the bar code pattern after the irradiation was evaluated. For the evaluation, PCS (print•contrast•signal) of 0.6 or more was evaluated as “good,” and PCS (print•contrast•signal) of less than 0.6 was evaluated as “bad.” The evaluation results are shown in Table 2 below.
The printed article was prepared in the same manner as Example 1 except that the solvent (a mixture solvent of toluene and methyl isobutyl ketone) in the composition of the infrared absorbing ink (1) and (2) is replaced with n-octane (SP value: 7.6), butyl acetate (SP value: 8.5), or isopropyl alcohol (IPA; SP values: 11.5), and evaluated.
The comparative printed article was prepared in the same manner as Example 1 except that the solvent (a mixture solvent of toluene and methyl isobutyl ketone) in the composition of the infrared absorbing ink (1) and (2) is replaced with n-pentane (SP value: 7.0; Example 2) or ethanol (SP value: 12.7; Example 3), and evaluated.

[4] = Example 2, ink solvent n-pentane (SP value: 7.0)
[5] = Example 3, ink solvent ethanol (SP value: 12.7)
[6] = ink solvent IPA (SP value: 11.5)
[7] = ink solvent butyl acetate (SP value: 8.5)
[8] = ink solvent n-octane (SP value: 7.6)
[9] = ink solvent toluene/methyl isobutyl ketone = 70/30

SMILES | Solubility [mg/ml] Solvent: toluene ([1]; toluene, 25° C.) | Variation amount after irradiation [%] [2] | Reading after irradiation [3, 4] | Reading after irradiation [3, 5] | Reading after irradiation [3, 6] | Reading after irradiation [3, 7] | Reading after irradiation [3, 8] | Reading after irradiation [3, 9] | Solubility [mg/ml] Solvent: toluene [1]
CCOc1c2c(c(OCC)c3ccccc13)-c1nc-2nc2[n-]c(nc3nc(nc4[n-]c(n1)c1c(OCC)c5ccccc5c(OCC)c41)-c1c-3c(OCC)c3ccccc3c1OCC)c1c(OCC)c3ccccc3c(OCC)c21.[Cu+2] [Compound 23] | 1.75 mg/mL | 4% | Bad (PCS (print•contrast•signal) of less than 0.6 was evaluated as “bad.”) | Bad (PCS (print•contrast•signal) of less than 0.6 was evaluated as “bad.”) | Good (PCS (print•contrast•signal) of 0.6 or more was evaluated as “good,”) | Good (PCS (print•contrast•signal) of 0.6 or more was evaluated as “good,”) | Good (PCS (print•contrast•signal) of 0.6 or more was evaluated as “good,”) | Good (PCS (print•contrast•signal) of 0.6 or more was evaluated as “good,”) | –
CCCCOc1c2c(c(OCCCC)c3ccccc13)C1=Nc3c4c(OCCCC)c5ccccc5c(OCCCC)c4c4[n]3[Cu][n]3c(c5c(OCCCC)c6ccccc6c(OCCCC)c5c3=NC3=NC(=N4)c4c3c(OCCCC)c3ccccc3c4OCCCC)=NC2=N1 [Compound 24] | 16 mg/mL | 3% | Bad (PCS (print•contrast•signal) of less than 0.6 was evaluated as “bad.”) | Bad (PCS (print•contrast•signal) of less than 0.6 was evaluated as “bad.”) | Good (PCS (print•contrast•signal) of 0.6 or more was evaluated as “good,”) | Good (PCS (print•contrast•signal) of 0.6 or more was evaluated as “good,”) | Good (PCS (print•contrast•signal) of 0.6 or more was evaluated as “good,”) | Good (PCS (print•contrast•signal) of 0.6 or more was evaluated as “good,”) | –
CCCCCCCCOc1c2c(c(OCCCCCCCC)c3ccccc13)C1=Nc3c4c(OCCCCCCCC)c5ccccc5c(OCCCCCCCC)c4c4[n]3[Cu][n]3c(c5c(OCCCCCCCC)c6ccccc6c(OCCCCCCCC)c5c3=NC3=NC(=N4)c4c3c(OCCCCCCCC)c3ccccc3c4OCCCCCCCC)=NC2=N1 [Compound 25] | 27 mg/mL | 2% | Bad (PCS (print•contrast•signal) of less than 0.6 was evaluated as “bad.”) | Bad (PCS (print•contrast•signal) of less than 0.6 was evaluated as “bad.”) | Good (PCS (print•contrast•signal) of 0.6 or more was evaluated as “good,”) | Good (PCS (print•contrast•signal) of 0.6 or more was evaluated as “good,”) | Good (PCS (print•contrast•signal) of 0.6 or more was evaluated as “good,”) | Good (PCS (print•contrast•signal) of 0.6 or more was evaluated as “good,”) | –
CCCCCCCCOc1c2c(c(OCCCCCCCC)c3ccccc13)C1=Nc3c4c(OCCCCCCCC)c5ccccc5c(OCCCCCCCC)c4c4[n]3[Zn][n]3c(c5c(OCCCCCCCC)c6ccccc6c(OCCCCCCCC)c5c3=NC3=NC(=N4)c4c3c(OCCCCCCCC)c3ccccc3c4OCCCCCCCC)=NC2=N1 [Compound 27] | – | 4% | Bad (PCS (print•contrast•signal) of less than 0.6 was evaluated as “bad.”) | Bad (PCS (print•contrast•signal) of less than 0.6 was evaluated as “bad.”) | Good (PCS (print•contrast•signal) of 0.6 or more was evaluated as “good,”) | Good (PCS (print•contrast•signal) of 0.6 or more was evaluated as “good,”) | Good (PCS (print•contrast•signal) of 0.6 or more was evaluated as “good,”) | Good (PCS (print•contrast•signal) of 0.6 or more was evaluated as “good,”) | 25 mg/mL
